Assay type in all cases: cell-based
Assay [1] concerns Staphylococcus aureus 757 (MRSA). In words: MIC by broth microdilution, SA 757. The note with it: Staphylococcus aureus 757 (MRSA); class symbols; read-out: MIC SA 757. As to the method: (§1) Antibacterial activity in vitro is investigated by broth microdilution method in Meuller-Hinton broth as recommended by NCCLS. All strains tested are clinical isolates either sensitive or resistant to natural glycopeptides. MIC values were determined using the CLSI-recommended broth microdilution procedure (Clinical and Laboratory Standards Institute, Methods for Dilution Antimicrobial Susceptibility Tests for Bacteria That Grow Aerobically; Approved Standard-Seventh Edition.). Automated liquid handlers (Multidrop 384, Labsystems, Helsinki, Finland; Biomek 2000 and Multimek 96, Beckman Coulter, Fullerton Calif.) were used to conduct serial dilutions and liquid transfers. The MIC value for vancomycin is given for comparison. The abbreviations for organisms tested are as follow: SA 100—Staphylococcus aureus 100 (ATCC 29213); SA 757—Staphylococcus aureus 757 (MRSA); SA 2012—Staphylococcus aureus 2012 (VISA); SE 835—Staphylococcus epidermidis 835; SE 831—Staphylococcus epidermidis 831 (MRSE); EFc 101—Enterococcus faecalis 101 (ATCC 29212); EFc 848—Enterococcus faecalis 848 (VRE, Van A); EFcm 800—Enterococcus faecium 800; EFcm 752—Enterococcus faecium 752 (VRE, Van A); SPNE 1195—Streptococcus pneumoniae 1195 (ATCC 49619); SPY 712—Streptococcus pyogenes 712.

For assay [2], the system named is Enterococcus faecalis 101 (ATCC 29212). The assay is described as follows: MIC by broth microdilution, EFc 101. The settings on record: ATCC29212; Enterococcus faecalis 101 (ATCC 29212); class symbols; read-out: MIC E FC 101. As to the method:
as §1
Background: Dilution methods test growth across graded concentrations, often in twofold steps.

Assay [3] relates to Staphylococcus epidermidis 835. In words: MIC by broth microdilution, SE 835. The note with it: Staphylococcus epidermidis 835; class symbols; read-out: MIC SE 835. The protocol: as §1
The test system of assay [4] is Staphylococcus epidermidis 831 (MRSE). The assay is described as follows: MIC by broth microdilution, SE 831. The settings on record: Staphylococcus epidermidis 831 (MRSE); class symbols; read-out: MIC SE 831. As to the method: as §1
Assay [5] deals with Staphylococcus aureus 100 (ATCC 29213). In words: MIC by broth microdilution, SA 100. The note with it: ATCC29213; Staphylococcus aureus 100 (ATCC 29213); class symbols; read-out: MIC SA 100. As to the method:
as §1

In assay [6] the test system is Streptococcus pyogenes 712. In words: MIC by broth microdilution, SPY 712. The settings on record: Streptococcus pyogenes 712; class symbols; read-out: MIC S PYO 712. As to the method:
as §1

In assay [7] the test system is Enterococcus faecium 800. In words: MIC by broth microdilution, EFcm 800. The settings on record: Enterococcus faecium 800; class symbols; read-out: MIC E FCM 800. As to the method: as §1
Assay [8] has as its system Streptococcus pneumoniae 1195 (ATCC 49619). In words: MIC by broth microdilution, SPNE 1195. The note with it: ATCC49619; Streptococcus pneumoniae 1195 (ATCC 49619); class symbols; read-out: MIC S PNE 1195. The protocol:
as §1

Assay [9] concerns Staphylococcus aureus 2012 (VISA). The assay is described as follows: MIC by broth microdilution, SA 2012. The settings on record: Staphylococcus aureus 2012 (VISA); class symbols; read-out: MIC SA 2012. The protocol: as §1
Assay [10] has as its system Enterococcus faecalis 848 (VRE, Van A). The assay is described as follows: MIC by broth microdilution, EFc 848. The note with it: Enterococcus faecalis 848 (VRE, Van A); class symbols; read-out: MIC E FC 848. The protocol: as §1
Assay [11] relates to Enterococcus faecium 752 (VRE, Van A). In words: MIC by broth microdilution, EFcm 752. The note with it: Enterococcus faecium 752 (VRE, Van A); class symbols; read-out: MIC E FCM 752. The protocol: as §1

In brackets after ≈: the same amount, converted by molar mass. Where only a bound is given, the exact number is not on record here.

A word on the MIC: it is the smallest concentration in the dilution series that meets the test's criterion for growth inhibition.

For the molecule `CCCCCCc1ccc(S(=O)(=O)NCCCCCCNCc2c(O)cc3c(c2O)-c2cc(ccc2O)[C@H]2NC(=O)[C@@H]4NC(=O)[C@H](CC(N)=O)NC(=O)[C@H](NC(=O)[C@@H](CC(C)C)NC)[C@H](O)c5ccc(c(Cl)c5)Oc5cc4cc(c5O[C@@H]4O[C@H](CO)[C@@H](O)[C@H](O)[C@H]4O[C@H]4C[C@](C)(NC(C)=O)[C@H](O)[C@H](C)O4)Oc4ccc(cc4Cl)[C@@H](O)[C@H](NC2=O)C(=O)N[C@@H]3C(=O)O)cc1` (atropisomer, axis not shown) [Compound 363], the MIC in assay [1], in [2], in [3], in [4], in assay [5] and in assay [6] was 0.01 to 0.5 µg/mL (≈ 0.00542 to 0.271 µM) throughout. Further, the MIC was 0.01 to 0.5 µg/mL (≈ 0.00542 to 0.271 µM) in [7]; 0.01 to 0.5 µg/mL (≈ 0.00542 to 0.271 µM) in [8]; 0.01 to 0.5 µg/mL (≈ 0.00542 to 0.271 µM) in [9]; 8 to 16 µg/mL (≈ 4.34 to 8.68 µM) in [10]; 2 to 4 µg/mL (≈ 1.08 to 2.17 µM) in assay [11].
Consider `CCCCCCc1ccc(S(=O)(=O)NCCCCCCNCc2c(O)cc3c(c2O)-c2cc(ccc2O)[C@H]2NC(=O)[C@@H]4NC(=O)[C@H](CC(N)=O)NC(=O)[C@H](NC(=O)[C@@H](CC(C)C)NC)[C@H](O)c5ccc(c(Cl)c5)Oc5cc4cc(c5O[C@@H]4O[C@H](CO)[C@@H](O)[C@H](O)[C@H]4O[C@H]4C[C@](C)(NC(=O)NC5CC5)[C@H](O)[C@H](C)O4)Oc4ccc(cc4Cl)[C@@H](O)[C@H](NC2=O)C(=O)N[C@@H]3C(=O)O)cc1` (atropisomer, axis not shown) [Compound 365], for which the MIC in assay [1], in assay [2], in [3], in assay [4], in [5] and in assay [6] was 0.01 to 0.5 µg/mL (≈ 0.00531 to 0.265 µM) each time. Besides, the MIC in [7] was 0.01 to 0.5 µg/mL (≈ 0.00531 to 0.265 µM); in [8], 0.01 to 0.5 µg/mL (≈ 0.00531 to 0.265 µM); in [9], 0.01 to 0.5 µg/mL (≈ 0.00531 to 0.265 µM); in assay [10], greater than 16 µg/mL; in assay [11], 1 to 2 µg/mL (≈ 0.531 to 1.06 µM).
Take `CCCCCOc1ccc(S(=O)(=O)NCCCCCCNCc2c(O)cc3c(c2O)-c2cc(ccc2O)[C@H]2NC(=O)[C@@H]4NC(=O)[C@H](CC(N)=O)NC(=O)[C@H](NC(=O)[C@@H](CC(C)C)NC)[C@H](O)c5ccc(c(Cl)c5)Oc5cc4cc(c5O[C@@H]4O[C@H](CO)[C@@H](O)[C@H](O)[C@H]4O[C@H]4C[C@](C)(NC(=O)[C@@H](C)N)[C@H](O)[C@H](C)O4)Oc4ccc(cc4Cl)[C@@H](O)[C@H](NC2=O)C(=O)N[C@@H]3C(=O)O)cc1` (atropisomer, axis not shown) [Compound 357]: the MIC in assay [1], in assay [2], in [3], in assay [4], in assay [5] and in assay [6] was 0.01 to 0.5 µg/mL (≈ 0.00533 to 0.267 µM) in each case. Further, the MIC was 0.01 to 0.5 µg/mL (≈ 0.00533 to 0.267 µM) in [7]; 0.01 to 0.5 µg/mL (≈ 0.00533 to 0.267 µM) in [8]; 0.01 to 0.5 µg/mL (≈ 0.00533 to 0.267 µM) in assay [9]; greater than 16 µg/mL in assay [10]; 4 to 8 µg/mL (≈ 2.13 to 4.27 µM) in [11].

The values above are taken from patent publication US20110015119A1, “NOVEL SEMI-SYNTHETIC GLYCOPEPTIDES AS ANTIBACTERIAL AGENTS” (LEAD THERAPEUTICS, INC., priority 2009, published 2011).
